Experiments:
Format in all cases: cell-based
AsPC-1 (G12D) cells = experiment: Cell viability assay (CELLTITER-GLO), AsPC-1 cells; conditions: Homo sapiens, ASPC1, 72 h, Inhibition of cancerous cells, 3 days incubation, luminescence
Description: (§1) AsPC-1, H358, and SW48 cells were cultured in RPMI 1640 media supplemented with 10% fetal bovine serum, streptomycin, and penicillin. Lovo and SW480 cells were cultured in DMEM media supplemented with 10% fetal bovine serum, streptomycin, and penicillin. The cell lines were plated in their respective medium supplemented with 2.5% fetal bovine serum, streptomycin, and penicillin. All cell lines were plated in white walled 96-well plates at 2,000 cells/well or 384-well plates at 500 cells/well, except Lovo, which were plated at 4,000 or 1,000 cells/well, respectively. The cells were incubated in DMSO (control) or a compound for 3 days at 37° C. under 5% CO2. A CELLTITER-GLO® reagent ([…] was then added to each well. After a 10 min incubation with shaking, luminescence was measured using an ENVISION® multimode plate reader. IC50 values are summarized in Table 1.

H358 (G12C) cells = experiment: Cell viability assay (CELLTITER-GLO), H358 cells; conditions: Homo sapiens, NCI-H358, 72 h, Inhibition of cancerous cells, 3 days incubation, luminescence
Description: as §1

Lovo (G13D) cells = experiment: Cell viability assay (CELLTITER-GLO), Lovo cells; conditions: Homo sapiens, 72 h, Inhibition of cancerous cells, 3 days incubation, luminescence
Description: as §1

SW48 (wt) cells = experiment: Cell viability assay (CELLTITER-GLO), SW48 cells; conditions: Homo sapiens, 72 h, Inhibition of cancerous cells, 3 days incubation, luminescence
Description: as §1

SW480 (G12V) cells = experiment: Cell viability assay (CELLTITER-GLO), SW480 cells; conditions: Homo sapiens, 72 h, Inhibition of cancerous cells, 3 days incubation, luminescence
Description: as §1

SOS1 = biological target: T1, SOS1 (Homo sapiens, UniProt Q07889); experiment: Protein degradation assay (western blot) in MV-4-11 cells; conditions: 6 h; for Degradation 3 μM (SOS1 protein, % degradation relative to DMSO control): compound at 3 μM; for Degradation 10 μM (SOS1 protein, % degradation relative to DMSO control): compound at 10 μM
T1 construct: Whole cell extracts were prepared using an immunoprecipitation (IP) lysis buffer; endogenous in cells; host or cells: MV-4-11
T1 sequence (Q07889 1-1333): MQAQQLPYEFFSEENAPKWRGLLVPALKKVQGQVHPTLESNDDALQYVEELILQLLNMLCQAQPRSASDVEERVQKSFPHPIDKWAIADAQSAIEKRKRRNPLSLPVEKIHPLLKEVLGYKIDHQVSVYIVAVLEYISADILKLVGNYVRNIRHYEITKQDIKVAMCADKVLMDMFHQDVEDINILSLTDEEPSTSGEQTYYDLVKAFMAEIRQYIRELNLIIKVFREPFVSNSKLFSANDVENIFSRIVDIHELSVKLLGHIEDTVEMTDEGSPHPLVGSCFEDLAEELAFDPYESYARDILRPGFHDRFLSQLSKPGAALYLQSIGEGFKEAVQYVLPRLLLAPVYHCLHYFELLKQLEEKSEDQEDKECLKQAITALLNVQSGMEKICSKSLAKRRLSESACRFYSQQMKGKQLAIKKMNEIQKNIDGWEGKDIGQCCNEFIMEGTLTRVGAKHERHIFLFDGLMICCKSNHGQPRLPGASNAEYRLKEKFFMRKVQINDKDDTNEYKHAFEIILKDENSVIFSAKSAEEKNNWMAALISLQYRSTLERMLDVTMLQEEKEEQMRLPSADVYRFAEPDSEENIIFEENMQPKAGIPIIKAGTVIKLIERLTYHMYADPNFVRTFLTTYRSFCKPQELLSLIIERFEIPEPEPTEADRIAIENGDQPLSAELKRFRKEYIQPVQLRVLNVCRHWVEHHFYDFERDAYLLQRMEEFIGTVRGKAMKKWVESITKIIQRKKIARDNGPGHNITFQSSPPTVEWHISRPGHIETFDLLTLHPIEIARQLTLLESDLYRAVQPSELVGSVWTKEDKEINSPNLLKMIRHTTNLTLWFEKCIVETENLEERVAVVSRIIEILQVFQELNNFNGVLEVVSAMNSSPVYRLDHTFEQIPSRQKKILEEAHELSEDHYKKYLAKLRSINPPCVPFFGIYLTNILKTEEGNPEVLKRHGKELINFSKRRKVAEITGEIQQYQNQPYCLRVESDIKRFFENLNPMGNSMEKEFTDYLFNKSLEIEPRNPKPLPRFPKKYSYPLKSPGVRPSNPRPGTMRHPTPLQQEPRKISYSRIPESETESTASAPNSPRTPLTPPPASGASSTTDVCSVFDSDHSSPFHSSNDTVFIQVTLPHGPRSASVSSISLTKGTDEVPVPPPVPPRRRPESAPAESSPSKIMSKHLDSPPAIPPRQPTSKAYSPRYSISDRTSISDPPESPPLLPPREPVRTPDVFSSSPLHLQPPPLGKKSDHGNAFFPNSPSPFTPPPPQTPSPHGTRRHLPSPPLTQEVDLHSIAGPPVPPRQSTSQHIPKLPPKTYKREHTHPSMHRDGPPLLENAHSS
Description: MV-4-11 cells were grown in RPMI 1640 media supplemented with 10% fetal bovine serum, streptomycin, and penicillin. The cells were plated in 24-well plates in the growth media. The cells were then treated with a compound at indicated concentrations for 6 h. Whole cell extracts were prepared using an immunoprecipitation (IP) lysis buffer. Briefly, the cells were washed once in PBS, and the cell pellets were resuspended in the IP lysis buffer and incubated for 15 min on ice. Cell debris was removed by centrifugation and the cleared whole cell lysates were transferred to new tubes for further analysis.
For a western blot analysis, the whole cell protein extracts were separated on 4-12% SDS-polyacrylamide gels, transferred to nitrocellulose, and probed with primary antibodies. The nitrocellulose was subsequently washed and probed with IRDYE® secondary antibodies. The signals were detected using an ODYSSEY® Imaging System. The antibodies used in the assay included anti-SOS1; anti-KRAS; β-actin mouse monoclonal antibody; IRDYE® 680RD goat anti-rabbit antibody; and IRDYE® 800CW goat anti-mouse antibody.
[…] The % degradation values relative to the DMSO control are reported as “A,” “B,” “C,” or “D;” where “A” represents a percentage degradation value of no less than 50%; “B” represents a percentage degradation value of less than 50% and no less than 25%; “C” represents a percentage degradation value of less than 25% and no less than 10%; and “D” represents a percentage degradation value of less than 10%.

SMILES | IC50 (AsPC-1 (G12D) cells) [µM] | IC50 (H358 (G12C) cells) [µM] | IC50 (Lovo (G13D) cells) [µM] | IC50 (SW48 (wt) cells) [µM] | IC50 (SW480 (G12V) cells) [µM] | Degradation 3 μM (SOS1 protein, % degradation relative to DMSO control) (SOS1) | Degradation 10 μM (SOS1 protein, % degradation relative to DMSO control) (SOS1)
CNCc1ccccc1-c1csc([C@@H](C)Nc2nc(C)nc3cc(OCCCCCCCN4CCC(C(F)(F)F)CC4)c(OC)cc23)c1 [Compound A67, (R)-6-Methoxy-2-methyl-N-(1-(4-(2-((methylamino)methyl)phenyl)thiophen-2-yl)ethyl)-7-((7-(4-(trifluoromethyl)piperidin-1-yl)heptyl)oxy)quinazolin-4-amine] | 0.59 | 1.2 | 0.54 | 0.53 | 0.44 |  | 
COc1cc2c(N[C@H](C)c3cccc(Br)c3)nc(C)nc2cc1OCCCCCCCNCCC(F)(F)F [Compound A70, (R)—N-(1-(3-Bromophenyl)ethyl)-6-methoxy-2-methyl-7-((7-((3,3,3-trifluoro-propyl)amino)heptyl)oxy)quinazolin-4-amine] | 1.3 | 1.4 | 0.5 | 0.98 | 0.93 |  | 
COc1cc2nc(C)nc(N[C@H](C)c3cc(N)cc(C(F)(F)F)c3)c2cc1OC [reference compound] | > 10 | > 10 | > 10 | > 10 | > 10 |  | 
CNCc1ccccc1-c1csc([C@H](C)Nc2nc(C)nc3cc(OCCCCCCC(=O)N4CCCCC4)c(OC)cc23)c1 [Compound A69, (S)-7-((6-Methoxy-2-methyl-4-((1-(4-(2-((methylamino)methyl)phenyl)thiophen-2-yl)ethyl)amino)quinazolin-7-yl)oxy)-1-(piperidin-1-yl)heptan-1-one] | 2 | 0.93 | 0.72 | 0.66 | 0.41 |  | 
CNCc1ccccc1-c1csc([C@@H](C)Nc2nc(CCCCCCCCN3CCCCC3)nc3cc(OC)c(OC)cc23)c1 [Compound C1, (R)-6,7-Dimethoxy-N-(1-(4-(2-((methylamino)methyl)phenyl)thiophen-2-yl)ethyl)-2-(8-(piperidin-1-yl)octyl)quinazolin-4-amine] |  |  |  |  |  | D (a percentage degradation value of less than 10%) | D (a percentage degradation value of less than 10%)
COc1cc2nc(C)nc(N[C@H](C)c3cccc(C(F)(F)CO)c3)c2cc1OC [reference compound] | > 10 | > 10 | > 10 | > 10 | > 10 |  | 
COc1cc2c(N[C@H](C)c3cccc(Br)c3)nc(C)nc2cc1OCCCCCCCN1CCC2(CCNCC2)CC1 [Compound A71, (R)-7-((7-(3,9-Diazaspiro[5.5]undecan-3-yl)heptyl)oxy)-N-(1-(3-bromophenyl)-ethyl)-6-methoxy-2-methylquinazolin-4-amine] | 2.7 | 2.8 | 1.4 | 1.4 | 1.5 |  | 
COc1cc2c(N[C@H](C)c3cccc(Br)c3)nc(C)nc2cc1OCCCCCCCN1CCCCC1 [Compound A1, (R)—N-(1-(3-bromophenyl)ethyl)-6-methoxy-2-methyl-7-((7-(piperidin-1-yl)heptyl)oxy)quinazolin-4-amine] |  | 1.1 | 0.63 | 0.68 | 0.52 | B (a percentage degradation value of less than 50% and no less than 25%) | A (a percentage degradation value of no less than 50%)
CNCc1ccccc1-c1csc([C@H](C)Nc2nc(C)nc3cc(OCCC(C)(C)C)c(OC)cc23)c1 [Compound A63, (S)-7-(3,3-Dimethylbutoxy)-6-methoxy-2-methyl-N-(1-(4-(2-((methylamino)-methyl)phenyl)thiophen-2-yl)ethyl)quinazolin-4-amine] | 1 | 1.1 | 0.42 | 0.53 | 0.46 |  | 

— patent US20240197888A1, “SOS1 PROTEIN DEGRADERS, PHARMACEUTICAL COMPOSITIONS THEREOF, AND THEIR THERAPEUTIC APPLICATIONS” (BioTheryX, Inc., priority 2021, published 2024)
